Assay results: publication PMC6713262 (Cell, 2019)
Like-named read-outs stand apart in the source and are kept apart here.

Target: crystallized CB2 construct (CB2-T4L) (Homo sapiens, UniProt P34972, D228Y/G225M/G233N/G304E/G78L/H226L/INS221[…]/INS227[…]/INS235[…]/M234R/R229N/R242E/S224R/T127A/T153L/V231T)
Assay: Radioligand competition binding with [3H]-CP55,940, crystallized CB2 construct

Row | Compound | Effect of construct modifications on binding affinity of CB2 | Effect of construct modifications on binding affinity of CB2 (T4L fusion, five mutations, N/C-terminal truncation, Figure S1F)
1 | SR144528 [reference compound] | little effect | –
2 | Cc1c(C(=O)NC23CC4CC(CC(C4)C2)C3)nn(CCCCCO)c1-c1ccccc1 [AM10257, 1-(5-Hydroxypentyl)-4-methyl-5-phenyl-N-tricyclo[3.3.1.1^3,7]dec-1-yl-1H-pyrazole-3-carboxamide] | – | little effect
